Measured values as given in publication PMC9889419 (Pharmacological Reports, 2022).
Where a name gives a salt, the structure may show the parent alone.

Columns and labels:
[1] = system: P-glycoprotein (pregnane X receptor); test: In vitro metabolic gene induction studies; type: cell-based, human; settings: up to 500 uM
Text: Test 28 - In Vitro Metabolic Gene Induction Studies
Solventcode: DMSO Solvent Prep: Unit: uM
Cell line source: Puracyp Molecular 257.7590
Date Started: O5+eb-2O10 Date Completed: 15+eb-201O Weight:
Reference: Lamb book#8 pg.77 […]
lsoform Code: P{lycoprotein cell line: MDRI.C
Induc0on mechanism: pregnane X receptor
Concentration lnduction Cell […]
Note: 8ox ifdata is different.
. {calculated): slight Induotion (under tlffo fold) in vitro.
The highest response was less than that seen with 1ouM rifampicin.
(1 picture or pasted object on this page, not shown here)

[2] = system: organotypic hippocampal slice cultures; test: Neuroprotection primary screen, excitotoxin NMDA; type: cell-based; settings: NMDA 10 µM; 10 and 100 µM compound
murine astrocytes = test: Crystal violet (CV) assay; type: cell-based
Method: CV assay. Cells were seeded at a density of 1 × 10^4 cells per well in 96-well plates.

[3] = Forced degradation studies (HPLC); type: physicochemical
Method: HPLC conditions and equipment. The liquid chromatography system HITACHI High-Technologies Corporation (Tokyo, Japan) equipped with a solvent delivery pump (L-2130), a degasser, an autosampler (L-2200), a photodiode array detector (L-2455) and a column oven (L-2350) was used. […] The injection volume was 20 µL. Based on the registered absorption spectrum detection wavelength was selected as 230 nm. The analysis time was 15 min.
Irradiation conditions. Irradiation was conducted in a climatic chamber KBF-ICH 240 APT.lineTM (Binder GmbH, Tuttlingen, Germany) at 25 °C and 60% humidity using UVA radiation (320–400 nm) with maximum emission at 365 nm. The intensity of radiation was determined using a radiometer type VLX-3 W, Vilber Lourmat, with a CX-365 sensor, to be each time of […]. The distance between the samples and the radiation source was 13 cm.
Degradation in acidic solution. […] 8 mL of the examined solution was transferred to a glass vial and heated in an oven at 70 °C. The sample volume of 0.5 mL was taken and diluted with 0.5 mL of water. The solution was analyzed three times by HPLC method.
Degradation in basic solution. […] 4 mL of examined solution was transferred to glass vials of 8 mL capacity and heated in an oven at 70 °C. The volume of 0.5 mL was taken and diluted with 0.5 mL of 0.5 M HCl. The solution was analyzed three times by HPLC method.
Degradation in phosphate buffer at pH = 7.0. […] The volume of 8 mL of examined solution was transferred to glass vials of 8 mL capacity and stored in a dark place at 25 °C or heated in an oven at 70 °C. The volume of 0.5 mL of solution was taken and diluted with 0.5 mL of water. The solution was analyzed by HPLC method.
Degradation in the presence of oxidative agent. […] The samples were stored at 25 °C. The volume of 0.5 mL of solution was taken and diluted with 0.5 mL of water. The solution was analyzed three times by HPLC method. […] The volume of 8 mL of examined solution was transferred to glass vials of 8 mL capacity and heated in an oven at 40 °C. The volume of 0.5 mL of solution was taken and diluted with 0.5 mL of water. The solution was analyzed by HPLC method.
Degradation in the presence of reducing agent. […] 8 mL of the examined solution was transferred to 8 mL glass vials and stored at 25 °C and 40 °C. The volume of 0.5 mL of solution was taken and diluted with 0.5 mL of water. The solution was analyzed three times by HPLC method.
Photodegradation under UV irradiation. […] 2 mL of the examined solution was transferred to a quartz Petri-dishes with diameter 4 cm and sealed with parafilm. Dark control samples were prepared in the same way, but they were secured with aluminum foil. The examined samples and the dark control samples were placed in a climatic chamber at […] and humidity 60% and irradiated for 96 h. The volume of 0.5 mL of solution was taken to the vials and the solution was analyzed by HPLC method.

mice = test: Formalin test (first screening); type: in vivo; settings: ip
Method: Formalin test. The first screening in doses 15 and 30 mg/kg was performed at the Jagiellonian University-Medical College. […] After 30 min, animals were injected with 20 μL of a 0.5% formalin solution into the plantar surface of the hind paw. The total time spent by animal licking or biting the injected paw was assessed for the following 40 min.

SMILES	induction [1]	Test Result (neuroprotection) [2]	impact on proliferation (crystal violet) (murine astrocytes)	degradation ([3]; 0.5 M HCl, 70 °C, 232 h)	degradation ([3]; 0.5 M NaOH, 70 °C, 232 h)	degradation ([3]; CuSO4, 192 h)	degradation products ([3]; H2O2, 168 h)	degradation ([3]; phosphate buffer pH 7.0, 25 °C, 240 h)	degradation ([3]; phosphate buffer pH 7.0, 70 °C, 168 h)	degradation ([3]; photodegradation, 96 h)	degradation ([3]; reducing agent, 40 °C, 168 h)	% of effect (II phase) (mice; 30.0 mg/kg)	Time of licking paw ± SEM (I phase) (mice; 30.0 mg/kg)	Time of licking paw ± SEM (II phase) (mice; 30.0 mg/kg)	formalin test (I phase): active at (mice)
CCC(CO)NCCOc1c(C)cccc1Cl (stereo not drawn) [Compound 4, R,S-2-((2-(2-chloro-6-methylphenoxy)ethyl)amino)butan-1-ol]	slight induction	No Neuroprotection	–	–	–	–	–	–	–	–	–	–	–	–	–
CCC(CO)NCCOc1c(C)cccc1Cl (stereo not drawn) [KM-408, R,S-2-((2-(2-chloro-6-methylphenoxy)ethyl)amino)butan-1-ol hydrochloride]	–	–	did not exhibit cytotoxic activity and a notable impact on proliferation	1.65%	2.02%	1.65%	1.84%	1.52%	1.96%	1.43%	1.50%	26.6%	60.6 ± 8.0 s	22.4 ± 6.5 s	30 mg/kg
